Test results reported in ChEMBL document CHEMBL3046548, “Genetic and biochemical analysis of a laboratory-selected spirodiclofen-resistant strain of Tetranychus urticae Koch (Acari: Tetranychidae)” (2009).
Values after ≈ are worked out from the molar mass of the structure shown. Structures can show the parent of a compound that is named as a salt.

Legend:
Tetranychus urticae [1] = test: Resistance ratio of LC50 for spirodiclofen-resistant Tetranychus urticae SR-VP (two-spotted spider mite) adults to LC50 for spirodiclofen-susceptible Tetranychus urticae LS-VL (two-spotted spider mite) adults; assay type: functional
Tetranychus urticae [2] = test: Insecticidal activity against spirodiclofen-susceptible Tetranychus urticae LS-VL (two-spotted spider mite) adults in kidney bean leaf disks assessed as mortality after 2 day; assay type: functional; details: foliar, 48 h
Tetranychus urticae [3] = test: Insecticidal activity against spirodiclofen-resistant Tetranychus urticae SR-VP (two-spotted spider mite) adults in kidney bean leaf disks assessed as mortality measured after 2 days; assay type: functional; details: foliar, 48 h
Tetranychus urticae [4] = test: Insecticidal activity against spirodiclofen-resistant Tetranychus urticae SR-VP (two-spotted spider mite) eggs in kidney bean leaf disks assessed as mortality measured after 1 day; assay type: functional
Tetranychus urticae [5] = test: Synergism factor, ratio of LC50 for Tetranychus urticae LS-VL (two-spotted spider mite) larvae to LC50 for Tetranychus urticae LS-VL larvae in presence of 200 mg/L GSH depleter, DEM; assay type: functional
Tetranychus urticae [6] = test: Insecticidal activity against Tetranychus urticae SR-VP (two-spotted spider mite) larvae reared under continuous pressure of 5000 mg/L spirodiclofen for 5 months assessed as mortality treated 3-4 hr after 200 mg/L GSH depleter, DEM application measured after 1 day; assay type: functional
Tetranychus urticae [7] = test: Synergism factor, ratio of LC50 for Tetranychus urticae SR-VP (two-spotted spider mite) larvae to LC50 for Tetranychus urticae SR-VP larvae in presence of 200 mg/L GSH depleter, DEM; assay type: functional
Tetranychus urticae [8] = test: (§1) Resistance ratio of LC50 for Tetranychus urticae SR-VP (two-spotted spider mite) larvae reared under continuous pressure of 5000 mg/L spirodiclofen for 5 months in presence of 200 mg/L GSH depleter, DEM to LC50 for Tetranychus urticae LS-VL (two-spotted spider mite) larvae in presence of 200 mg/L GSH depleter, DEM; assay type: functional
Tetranychus urticae [9] = test: Insecticidal activity against Tetranychus urticae LS-VL (two-spotted spider mite) larvae […] assessed as mortality treated 3-4 hr after 200 mg/L GSH depleter, DEM application measured after 1 day; assay type: functional
Tetranychus urticae [10] = test: Insecticidal activity against spirodiclofen-resistant Tetranychus urticae SR-VP (two-spotted spider mite) larvae in kidney bean leaf disks assessed as mortality measured after 1 day; assay type: functional; details: foliar, 24 h
Tetranychus urticae [11] = test: Resistance ratio of LC50 for spirodiclofen-resistant Tetranychus urticae SR-VP (two-spotted spider mite) larvae to LC50 for spirodiclofen-susceptible Tetranychus urticae LS-VL (two-spotted spider mite) larvae; assay type: functional
Tetranychus urticae [12] = test: Insecticidal activity against spirodiclofen-susceptible Tetranychus urticae LS-VL (two-spotted spider mite) larvae in kidney bean leaf disks assessed as mortality after 1 day; assay type: functional; details: foliar, 24 h
Tetranychus urticae [13] = test: Insecticidal activity against Tetranychus urticae SR-VP (two-spotted spider mite) larvae reared under continuous pressure of 5000 mg/L spirodiclofen for 5 months assessed as mortality treated 3-4 hr after 200 mg/L cytochrome P450 monooxygenase inhibitor, PBO application measured after 1 day
Tetranychus urticae [14] = test: Insecticidal activity against Tetranychus urticae LS-VL (two-spotted spider mite) larvae reared under continuous pressure of 5000 mg/L spirodiclofen for 5 months assessed as mortality treated 3-4 hr after 200 mg/L cytochrome P450 monooxygenase inhibitor, PBO application measured after 1 day
Tetranychus urticae [15] = test: Synergism factor, ratio of LC50 for Tetranychus urticae LS-VL (two-spotted spider mite) larvae to LC50 for Tetranychus urticae LS-VL larva in presence of 10 mg/L esterase inhibitor, DEF; assay type: functional
Tetranychus urticae [16] = test: Insecticidal activity against Tetranychus urticae LS-VL (two-spotted spider mite) larvae […] assessed as mortality treated 3-4 hr after 10 mg/L esterase inhibitor, DEF application measured after 1 day; assay type: functional
Tetranychus urticae [17] = test: Synergism factor, ratio of LC50 for Tetranychus urticae SR-VP (two-spotted spider mite) larvae to LC50 for Tetranychus urticae SR-VP larva in presence of 10 mg/L esterase inhibitor, DEF; assay type: functional
Tetranychus urticae [18] = test: as §1, with “10” for “200”, “esterase inhibitor, DEF” for “GSH depleter, DEM”; assay type: functional
Tetranychus urticae [19] = test: Insecticidal activity against Tetranychus urticae SR-VP (two-spotted spider mite) larvae reared under continuous pressure of 5000 mg/L spirodiclofen for 5 months assessed as mortality treated 3-4 hr after 10 mg/L esterase inhibitor, DEF application measured after 1 day; assay type: functional
Tetranychus urticae [20] = test: Insecticidal activity against spirodiclofen-resistant Tetranychus urticae SR-VP (two-spotted spider mite) larvae maintained on bean plants sprayed with 5000 mg/L spirodiclofen assessed as mortality measured at 6 months after mite transfer onto unsprayed bean plants; assay type: functional
Tetranychus urticae [21] = test: Insecticidal activity against spirodiclofen-resistant Tetranychus urticae SR-VP (two-spotted spider mite) larvae reared under continuous pressure of 5000 mg/L spirodiclofen for 5 months in kidney bean leaf disks assessed as mortality measured after 1 day; assay type: functional; details: foliar, 24 h
Tetranychus urticae [22] = test: Insecticidal activity against spirodiclofen-susceptible Tetranychus urticae LS-VL (two-spotted spider mite) eggs in kidney bean leaf disks assessed as mortality after 1 day; assay type: functional; details: foliar, 24 h
Tetranychus urticae [23] = test: Insecticidal activity against haploid F2 progeny generated from reciprocal cross between female Tetranychus urticae LS-VL (two-spotted spider mite) with male Tetranychus urticae SR-VP in kidney bean leaf disk assessed as mortality; assay type: functional; details: foliar
Tetranychus urticae [24] = test: Insecticidal activity against diploid F1 progeny generated from reciprocal cross between male Tetranychus urticae LS-VL (two-spotted spider mite) with female Tetranychus urticae SR-VP in kidney bean leaf disk assessed as mortality; assay type: functional
Tetranychus urticae [25] = test: Insecticidal activity against diploid F1 progeny generated from reciprocal cross between female Tetranychus urticae LS-VL (two-spotted spider mite) with male Tetranychus urticae SR-VP in kidney bean leaf disk assessed as mortality; assay type: functional
Tetranychus urticae [26] = test: Insecticidal activity against spirodiclofen-resistant Tetranychus urticae SR-VP (two-spotted spider mite) larvae maintained on bean plants sprayed with 5000 mg/L spirodiclofen assessed as mortality; assay type: functional
Tetranychus urticae [27] = test: Resistance ratio of LC50 for spirodiclofen-resistant Tetranychus urticae SR-VP (two-spotted spider mite) eggs to LC50 for spirodiclofen-susceptible Tetranychus urticae LS-VL (two-spotted spider mite) eggs; assay type: functional
Tetranychus urticae [28] = test: Insecticidal activity against haploid F2 progeny generated from reciprocal cross between male Tetranychus urticae LS-VL (two-spotted spider mite) with female Tetranychus urticae SR-VP in kidney bean leaf disk assessed as mortality; assay type: functional; details: foliar
Tetranychus urticae [29] = test: Resistance ratio of LC50 for spirodiclofen-resistant Tetranychus urticae SR-VP (two-spotted spider mite) larvae reared under continuous pressure of 5000 mg/L spirodiclofen for 5 months to LC50 for spirodiclofen-susceptible Tetranychus urticae LS-VL (two-spotted spider mite) larvae; assay type: functional

`CC[C@H](C)[C@H]1O[C@]2(C=C[C@@H]1C)C[C@@H]1C[C@@H](C/C=C(\C)[C@@H](O[C@H]3C[C@H](OC)[C@@H](O[C@H]4C[C@H](OC)[C@@H](O)[C@H](C)O4)[C@H](C)O3)[C@@H](C)/C=C/C=C3\CO[C@@H]4[C@H](O)C(C)=C[C@@H](C(=O)O1)[C@]34O)O2.CO[C@H]1C[C@H](O[C@H]2[C@H](C)O[C@@H](O[C@@H]3/C(C)=C/C[C@@H]4C[C@@H](C[C@]5(C=C[C@H](C)[C@@H](C(C)C)O5)O4)OC(=O)[C@@H]4C=C(C)[C@@H](O)[C@H]5OC/C(=C\C=C\[C@@H]3C)[C@]54O)C[C@@H]2OC)O[C@@H](C)[C@@H]1O` [ABAMECTIN] showed a RatioLC50 (Tetranychus urticae [1]) of 1.3, an LC50 (Tetranychus urticae [2]) of 0.4 µg/mL and an LC50 (Tetranychus urticae [3]) of 0.52 µg/mL.
In the case of `CCCCCCCCCCCCC1=C(OC(C)=O)C(=O)c2ccccc2C1=O` [ACEQUINOCYL], the RatioLC50 (Tetranychus urticae [1]) is reported as 3.8, the LC50 (Tetranychus urticae [2]) is reported as 7.7 µg/mL (≈ 20 µM) and the LC50 (Tetranychus urticae [3]) is reported as 29.6 µg/mL (≈ 77 µM). For the same compound, the LC90 (Tetranychus urticae [4]) was 60 µg/mL (≈ 156 µM).
For `COc1ccc(-c2ccccc2)cc1NNC(=O)OC(C)C` [BIFENAZATE], the RatioLC50 (Tetranychus urticae [1]) was 2, the LC50 (Tetranychus urticae [2]) was 1.2 µg/mL (≈ 4 µM) and the LC50 (Tetranychus urticae [3]) was 2.4 µg/mL (≈ 7.99 µM).
In the case of `CCOC(=O)/C=C\C(=O)OCC` [DIETHYL MALEATE], the RatioLC50 (Tetranychus urticae [5]) is reported as 0.7, the LC50 (Tetranychus urticae [6]) is reported as 1310 µg/mL and the RatioLC50 (Tetranychus urticae [7]) is reported as 1. For the same compound, the RatioLC50 (Tetranychus urticae [8]) was 189 and the LC50 (Tetranychus urticae [9]) was 6.9 µg/mL.
`CCOc1cc(C(C)(C)C)ccc1C1COC(c2c(F)cccc2F)=N1` (stereo not drawn) [ETOXAZOLE] was tested, and the LC50 (Tetranychus urticae [10]) was 0.61 µg/mL (≈ 1.7 µM), the RatioLC50 (Tetranychus urticae [11]) was 0.8 and the LC50 (Tetranychus urticae [12]) was 0.76 µg/mL (≈ 2.11 µM).
`CCCCOCCOCCOCc1cc2c(cc1CCC)OCO2` [PIPERONYL BUTOXIDE] showed an LC50 (Tetranychus urticae [13]) of 380 µg/mL (≈ 1120 µM) and an LC50 (Tetranychus urticae [14]) of 3.9 µg/mL (≈ 11.5 µM).
Compound `CC(C)(C)c1ccc(CSc2cnn(C(C)(C)C)c(=O)c2Cl)cc1` [PYRIDABEN] has a RatioLC50 (Tetranychus urticae [1]) of 0.9, an LC50 (Tetranychus urticae [2]) of 156 µg/mL (≈ 427 µM) and an LC50 (Tetranychus urticae [3]) of 135 µg/mL (≈ 370 µM).
`CCCCSP(=O)(SCCCC)SCCCC` [S,S,S,-TRIBUTYLPHOSPHOROTRITHIOATE] showed a RatioLC50 (Tetranychus urticae [15]) of 0.8, an LC50 (Tetranychus urticae [16]) of 6.3 µg/mL (≈ 20 µM) and a RatioLC50 (Tetranychus urticae [17]) of 3.3. For the same compound, the RatioLC50 (Tetranychus urticae [18]) was 64 and the LC50 (Tetranychus urticae [19]) was 402 µg/mL (≈ 1280 µM).
In the case of `CCC(C)(C)C(=O)OC1=C(c2ccc(Cl)cc2Cl)C(=O)OC12CCCCC2` [SPIRODICLOFEN], the LC50 (Tetranychus urticae [20]) is reported as 5930 µg/mL (≈ 14400 µM), the LC50 (Tetranychus urticae [21]) is reported as 1340 µg/mL (≈ 3270 µM) and the LC50 (Tetranychus urticae [22]) is reported as 8.7 µg/mL (≈ 21.2 µM). The LC50 (Tetranychus urticae [23]) was 56 µg/mL (≈ 136 µM), the LC90 (Tetranychus urticae [24]) was 236 µg/mL (≈ 574 µM) and the LC50 (Tetranychus urticae [24]; Tetranychus urticae, foliar) was 85 µg/mL (≈ 207 µM). It also gave an LC90 (Tetranychus urticae [25]) of 150 µg/mL (≈ 365 µM), an LC50 (Tetranychus urticae [25]; Tetranychus urticae, foliar) of 68 µg/mL (≈ 165 µM) and an LC50 (Tetranychus urticae [12]) of 4.9 µg/mL (≈ 11.9 µM). For the same compound, the LC50 (Tetranychus urticae [4]; Tetranychus urticae, SR-VP, foliar, 24 h) was 17.9 µg/mL (≈ 43.5 µM), the LC50 (Tetranychus urticae [26]) was 10000 µg/mL (≈ 24300 µM) and the RatioLC50 (Tetranychus urticae [27]) was 2. For the same compound, the LC50 (Tetranychus urticae [28]) was 44 µg/mL (≈ 107 µM) and the RatioLC50 (Tetranychus urticae [29]) was 277.
In the case of `Cc1cc(C)c(C2=C(OC(=O)CC(C)(C)C)C3(CCCC3)OC2=O)c(C)c1` [SPIROMESIFEN], the LC50 (Tetranychus urticae [10]) is reported as 14.5 µg/mL (≈ 39.1 µM), the RatioLC50 (Tetranychus urticae [11]) is reported as 18 and the LC50 (Tetranychus urticae [12]) is reported as 0.79 µg/mL (≈ 2.13 µM).
`CCc1nn(C)c(C(=O)NCc2ccc(C(C)(C)C)cc2)c1Cl` [TEBUFENPYRAD] was tested, and the RatioLC50 (Tetranychus urticae [1]) was 2.2, the LC50 (Tetranychus urticae [2]) was 63.5 µg/mL (≈ 190 µM) and the LC50 (Tetranychus urticae [3]) was 138 µg/mL (≈ 412 µM).
